Reference: patent US7317030B2, “Compounds as inhibitors of cell proliferation and viral infections” (4SC AG, priority 2004, dated 2008)

Tests used:
IMPDH = IMPDH enzyme assay (NADH release at 340 nm); format: biochemical, human; conditions: 0.2 mM IMP, 0.4 mM NAD, 37° C.
Description: IMPDH Enzyme-Assay: For measuring IMPDH activity in vitro, the substrate inosine monophosphate (IMP) and enzyme, with or without inhibitor, are mixed together. […] The released NADH is measured at 340 nm. The assay is performed in PMMA half micro liter cuvettes, the total assay volume is 1 mL. 500 μl of 2× assay buffer (200 mM Tris/HCl, pH 8.0, 200 mM KCl, 6 mM EDTA and 4 mM DTT) are mixed with 10 μL of a freshly prepared 20 mM IMP solution (0.2 mM final concentration) and 10 μL of enzyme (0.03 U/mL). An appropriate amount of inhibitor is dissolved in 100% DMSO. 10 μL of this solution are added to the assay mix (1% DMSO final concentration). Finally 455 μL of deionized water are added to give the final volume of 1 mL. The mixture is incubated for 10 min at 37° C. The enzyme reaction is started by addition of 25 μL of a 16 mM NAD solution (0.4 mM final concentration). Reaction is followed for 30 min at 37° C. at 340 nm. The enzyme reaction runs linear with respect to time during the 30 min. The slopes of the resulting curves are calculated and results are presented in % of residual activity, which is calculated as % activity=(slope with inhibitor/slope without inhibitor) *100. For the determination of the IC50 values (concentration of inhibitor required for 50% inhibition) at least four different inhibitor concentrations were applied. Each data point was recorded in triplicates. […]

Kv1.3 channels = target: T1, Kv1.3 channels (Mus musculus, UniProt P16390); test: Kv1.3 assay, whole-cell patch-clamp in stably transfected L929 cells; format: cell-based; conditions: c=20 μM, two cells per compound
T1 construct: expressed in transfected cells; host or cells: L929 cells, stably transfected
Description: The inhibition of Kv1.3 was measured in stable transfected cell lines expressing mouse Kv1.3 using the patch-clamp technique (Rauer H et al. J Biol Chem Vol. 275, No. 2, 1201-1208, 2000), Rauer H Mol Pharmacol, 50, 1625-1634, 1996, Rauer H et al. J Pharmacol, 127, 1065-1074, 1999).
Stable transfected L929 cells with Kv1.3 channels were grown in DMEM (Glutamax-I) media with 10% FCS, geneticin 330 μg/ml under 10% CO2 atmosphere.
Whole-cell patch-clamp configuration, with an external bath solution of 160 mM NaCl, 4, 5 mM KCl, 1 mM MgCl, 2 mM CaCl2, 5 mM HEPES, 10 mM EGTA and NaOH adjusted to pH 7.4. Internal pipette solution for recording was 155 mM KF, 2 mM MgCl2, 10 mM HEPES, 10 mM EGTA with KOH adjusted to pH 7.2. Currents were activated by a 200-ms voltage step from a holding potential of −80 to 40 mV every 30 s. Holding potential −80 mV.
Each compound was tested on two different cells. The cell was perfused with external bath solution (black line), then the compound was applied (c=20 μM). The resulting stedy-state current traces are shown as red lines. Example 3, 5, 6, 7, 8 are blockers.

T1 sequence (P16390 whole entry): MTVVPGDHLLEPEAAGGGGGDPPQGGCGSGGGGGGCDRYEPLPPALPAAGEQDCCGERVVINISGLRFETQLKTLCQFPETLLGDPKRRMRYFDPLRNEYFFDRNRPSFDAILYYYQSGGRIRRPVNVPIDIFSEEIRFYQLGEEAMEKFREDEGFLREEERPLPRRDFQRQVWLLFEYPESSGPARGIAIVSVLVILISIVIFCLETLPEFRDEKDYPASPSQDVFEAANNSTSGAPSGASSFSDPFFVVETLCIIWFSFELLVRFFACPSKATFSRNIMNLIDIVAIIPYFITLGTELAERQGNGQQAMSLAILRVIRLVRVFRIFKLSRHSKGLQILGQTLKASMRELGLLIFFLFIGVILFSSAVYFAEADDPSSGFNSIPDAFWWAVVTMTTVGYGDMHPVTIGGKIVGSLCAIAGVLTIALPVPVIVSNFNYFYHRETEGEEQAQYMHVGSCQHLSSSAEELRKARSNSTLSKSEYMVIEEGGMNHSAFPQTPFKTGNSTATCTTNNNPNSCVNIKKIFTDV

Structure (SMILES)	IC50 (IMPDH) [µM]	Kv1.3 channel block (Kv1.3 channels)
COc1cc(NC(=O)Nc2ccc(S(=O)(=O)N3CCOCC3)cc2)ccc1C#N [Example 15, 1-(4-Cyano-3-methoxy-phenyl)-3-[4-(morpholine-4-sulfonyl)-phenyl]-urea]	< 5	
O=C(Nc1cccc(C2=N[C@@H](c3ccccc3)CO2)c1)Nc1cccc(C(F)(F)F)c1 [Example 6, 1-[3-(4-(S)-Phenyl-4,5-dihydro-oxazol-2-yl)-phenyl]-3-(3-trifluoromethyl-phenyl)-urea]		blockers
O=C(Nc1ccc(C2=N[C@H](Cc3ccccc3)CO2)cc1)Nc1ccc(S(=O)(=O)NCc2cc(F)c(F)c(F)c2)cc1 [Example 3, 4-{3-[4-(4-(R)-Benzyl-4,5-dihydro-oxazol-2-yl)-phenyl]-ureido}-N-(3,4,5-trifluoro-benzyl)-benzenesulfonamide]		blockers

The remaining lines, values ahead:

IC50 (IMPDH) [µM]	Kv1.3 channel block (Kv1.3 channels)	Structure (SMILES)
	blockers	O=C(Nc1cccc(C2=N[C@H](Cc3ccccc3)CO2)c1)Nc1cccc(C(F)(F)F)c1 [Example 7, 1-[3-(4-(R)-Benzyl-4,5-dihydro-oxazol-2-yl)-phenyl]-3-(3-trifluoromethyl-phenyl)-urea]
	blockers	O=C(Nc1cccc(C2=N[C@H](c3ccccc3)CO2)c1)Nc1cccc(C(F)(F)F)c1 [Example 5, 1-[3-(4-(R)-Phenyl-4,5-dihydro-oxazol-2-yl)-phenyl]-3-(3-trifluoromethyl-phenyl)-urea]
	blockers	O=C(Nc1cccc(C2=N[C@@H](Cc3ccccc3)CO2)c1)Nc1cccc(C(F)(F)F)c1 [Example 8, 1-[3-(4-(S)-Benzyl-4,5-dihydro-oxazol-2-yl)-phenyl]-3-(3-trifluoromethyl-phenyl)-urea]
